Test results reported in PubChem BioAssay AID330 (DTP/NCI, 2004).
Values joined by “and” are separate entries in the source; they are usually repeats but may differ in a detail not shown here. Identical values can stand only once. Inconclusive results and toxic doses are left out. How the source made its calls: active means survival T/C of 150% or more; inactive means T/C below 125% in these data.

Test system: P388 leukemia ip, CD2F1 mice, survival T/C
Assay: NCI In Vivo Anticancer Drug Screen. Data for tumor model P388 Leukemia (intraperitoneal) in CD2F1 (CDF1) mice
Conditions: endpoint: median survival time, higher = longer survival
Outline: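 Mice carrying the transplanted tumor received test compound or vehicle. Survival was recorded in each group, and the value is the treated-group measurement divided by that of the vehicle-treated control group.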

[1] = dose: 60.0 mg/kg/injection, schedule: Q01DX005 (ip), vehicle: saline with Tween-80
[2] = dose: 120.0 mg/kg/injection, schedule: Q01DX005 (ip), vehicle: saline with Tween-80
[3] = dose: 240.0 mg/kg/injection, schedule: Q01DX005 (ip), vehicle: saline with Tween-80
[4] = dose: 100.0 mg/kg/injection, schedule: Q01DX009 (ip), vehicle: saline with Tween-80
[5] = dose: 50.0 mg/kg/injection, schedule: Q01DX005 (ip), vehicle: saline with Tween-80
[6] = dose: 100.0 mg/kg/injection, schedule: Q01DX005 (ip), vehicle: saline with Tween-80
[7] = dose: 50.0 mg/kg/injection, schedule: Q01DX009 (ip), vehicle: Klucel (hydroxypropylcellulose) (HPC)
[8] = dose: 100.0 mg/kg/injection, schedule: Q01DX009 (ip), vehicle: Klucel (hydroxypropylcellulose) (HPC)
[9] = dose: 50.0 mg/kg/injection, schedule: Q01DX005 (ip), vehicle: Klucel (hydroxypropylcellulose) (HPC)
[10] = dose: 100.0 mg/kg/injection, schedule: Q01DX005 (ip), vehicle: Klucel (hydroxypropylcellulose) (HPC)
[11] = dose: 200.0 mg/kg/injection, schedule: Q01DX005 (ip), vehicle: saline with Tween-80
[12] = dose: 200.0 mg/kg/injection, schedule: Q01DX009 (ip), vehicle: Klucel (hydroxypropylcellulose) (HPC)
[13] = dose: 25.0 mg/kg/injection, schedule: Q01DX001 (ip), vehicle: saline with Tween-80
[14] = dose: 50.0 mg/kg/injection, schedule: Q01DX001 (ip), vehicle: saline with Tween-80
[15] = dose: 100.0 mg/kg/injection, schedule: Q01DX001 (ip), vehicle: saline with Tween-80

Measured: T/C

Nc1nc(-c2ccccc2)c(CC(=O)O)c(-c2nc(N)nc(-c3ccccc3)c2CC(=O)O)n1
inactive: [1] 100 % of control | [2] 100 % of control | [3] 86 % of control

O=C(CCl)NN=C1C2CC3CC(C2)CC1C3
inactive: [4] 113 % of control

C=CCCOC1CCCCO1 (stereo not given)
inactive: dose: 50.0 mg/kg/injection, schedule: Q01DX009 (ip), vehicle: other 104 % of control | dose: 100.0 mg/kg/injection, schedule: Q01DX009 (ip), vehicle: other 104 % of control | dose: 200.0 mg/kg/injection, schedule: Q01DX009 (ip), vehicle: other 100 % of control

O=C(Nc1ccccc1)NC1CCCCCC1
inactive: dose: 50.0 mg/kg/injection, schedule: Q01DX009 (ip), vehicle: saline 93 % of control | dose: 100.0 mg/kg/injection, schedule: Q01DX009 (ip), vehicle: saline 98 % of control | dose: 200.0 mg/kg/injection, schedule: Q01DX009 (ip), vehicle: saline 87 % of control

CCCCCC(CN(C)C)C(=O)/C=C/c1ccc(F)cc1 (stereo not given)
inactive: dose: 12.5 mg/kg/injection, schedule: Q01DX005 (ip), vehicle: saline with Tween-80 98 % of control | dose: 25.0 mg/kg/injection, schedule: Q01DX005 (ip), vehicle: saline with Tween-80 104 % of control | [5] 107 % of control and 118 % of control | [6] 103 % of control

N#CSc1ccc2nc(NCO)sc2c1
inactive: [7] 104 % of control | [8] 101 % of control

CCN(CC)C1=C(c2ccccc2)C(=O)C1(C#N)C(C)(C)C (stereo not given)
inactive: [9] 98 % of control | [10] 93 % of control | dose: 200.0 mg/kg/injection, schedule: Q01DX005 (ip), vehicle: Klucel (hydroxypropylcellulose) (HPC) 93 % of control

CC1(C)CC(=O)CC(C(Cl)(Cl)Cl)O1 (stereo not given)
inactive: [5] 99 % of control | [6] 100 % of control | [11] 98 % of control

C/C=C/C=c1/[nH]c(=O)/c(=C\c2ccccc2)[nH]c1=O
inactive: [7] 104 % of control | [8] 104 % of control | [12] 103 % of control

C=CCc1c(O)c(OC)cc2c1C(=O)CCCC2
inactive: [8] 100 % of control | [12] 94 % of control | dose: 400.0 mg/kg/injection, schedule: Q01DX009 (ip), vehicle: Klucel (hydroxypropylcellulose) (HPC) 94 % of control

CC(=O)OCC1=C(COC(C)=O)C(=O)c2cc3ccccc3cc2C1=O
inactive: [13] 92 % of control | [14] 92 % of control | [15] 94 % of control | dose: 200.0 mg/kg/injection, schedule: Q01DX001 (ip), vehicle: saline with Tween-80 101 % of control

CC1=C(C)C(=O)c2c(c(O)c3ccccc3c2Cl)C1=O
inactive: dose: 0.75 mg/kg/injection, schedule: Q01DX005 (ip), vehicle: saline with Tween-80 96 % of control | dose: 1.5 mg/kg/injection, schedule: Q01DX005 (ip), vehicle: saline with Tween-80 89 % of control | dose: 3.0 mg/kg/injection, schedule: Q01DX005 (ip), vehicle: saline with Tween-80 91 % of control | [11] 93 % of control

COC1=C(Br)C(=O)N/C1=C(\OC)c1ccccc1
inactive: [1] 89 % of control | [2] 98 % of control | [3] 89 % of control

OCC(COCCCCCCCCCCCC1C=CCC1)OCCCCCCCCCCCC1C=CCC1 (stereo not given)
inactive: dose: 100.0 mg/kg/injection, schedule: Q04DX003 (ip), vehicle: saline 101 % of control | dose: 200.0 mg/kg/injection, schedule: Q04DX003 (ip), vehicle: saline 104 % of control | dose: 400.0 mg/kg/injection, schedule: Q04DX003 (ip), vehicle: saline 104 % of control

Cc1nn(C)c(Cl)c1C(=O)Nc1ccccc1
inactive: [5] 96 % of control | [1] 98 % of control | [6] 96 % of control | [11] 90 % of control | [3] 92 % of control

Cc1nc2nc3n(c(=O)c2nc1C)CCS3
inactive: dose: 100.0 mg/kg/injection, schedule: Q01DX001 (ip), vehicle: saline 103 % of control | dose: 200.0 mg/kg/injection, schedule: Q01DX001 (ip), vehicle: saline 108 % of control | dose: 400.0 mg/kg/injection, schedule: Q01DX001 (ip), vehicle: saline 102 % of control

OC1CC2CCCCC2CC1(O)c1ccc(OCc2ccccc2)c(OCc2ccccc2)c1 (stereo not given)
inactive: [13] 92 % of control | [14] 88 % of control | [15] 86 % of control

CC(C)C1=C2C3CC(O)C(C=O)=CC(=O)C3(C)CCC2(C)CC1 (stereo not given)
inactive: dose: 6.25 mg/kg/injection, schedule: Q01DX009 (ip), vehicle: saline + alcohol 112 % of control | dose: 12.5 mg/kg/injection, schedule: Q01DX009 (ip), vehicle: saline + alcohol 110 % of control | dose: 25.0 mg/kg/injection, schedule: Q01DX009 (ip), vehicle: saline + alcohol 108 % of control

O=C1C2C3C=CC(C3)C2C(=O)N1O (stereo not given)
inactive: [5] 101 % of control | [6] 100 % of control | [11] 100 % of control

CN(C)CCCC1(c2ccccc2)SC(C)(C)c2ccc(Cl)cc21 (stereo not given)
inactive: dose: 25.0 mg/kg/injection, schedule: Q01DX001 (ip), vehicle: Klucel (hydroxypropylcellulose) (HPC) 102 % of control | dose: 50.0 mg/kg/injection, schedule: Q01DX001 (ip), vehicle: Klucel (hydroxypropylcellulose) (HPC) 100 % of control

O=S(=O)([O][Hg][CH2]C1Cc2ccccc2O1)[O][Hg][CH2]C1Cc2ccccc2O1 (stereo not given)
inactive: dose: 11.0 mg/kg/injection, schedule: Q01DX009 (ip), vehicle: saline with Tween-80 118 % of control

C=C(C(=O)OC)C(O)CC (stereo not given)
inactive: dose: 50.0 mg/kg/injection, schedule: Q01DX005 (ip), vehicle: saline 91 % of control | dose: 100.0 mg/kg/injection, schedule: Q01DX005 (ip), vehicle: saline 107 % of control | dose: 200.0 mg/kg/injection, schedule: Q01DX005 (ip), vehicle: saline 100 % of control

CCN(CC)[Si](C)(C)N(CC)CC
inactive: dose: 30.0 mg/kg/injection, schedule: Q01DX005 (ip), vehicle: saline with Tween-80 100 % of control | [1] 100 % of control | [2] 104 % of control

OC(c1cc(-c2cccc(Cl)c2)nc2ccccc12)C1CCCCN1 (stereo not given)
inactive: [9] 112 % of control | [10] 107 % of control

COC(=O)C(OC)(OC)C(O)c1ccccc1 (stereo not given)
inactive: dose: 60.0 mg/kg/injection, schedule: Q01DX005 (ip), vehicle: saline 100 % of control | dose: 120.0 mg/kg/injection, schedule: Q01DX005 (ip), vehicle: saline 106 % of control | dose: 240.0 mg/kg/injection, schedule: Q01DX005 (ip), vehicle: saline 113 % of control

O=C(Nc1ccc(F)cc1)Nc1nccs1
inactive: dose: 17.5 mg/kg/injection, schedule: Q01DX009 (ip), vehicle: Klucel (hydroxypropylcellulose) (HPC) 108 % of control | dose: 35.0 mg/kg/injection, schedule: Q01DX009 (ip), vehicle: Klucel (hydroxypropylcellulose) (HPC) 110 % of control | dose: 50.0 mg/kg/injection, schedule: Q01DX009 (ip), vehicle: saline with Tween-80 96 % of control | dose: 70.0 mg/kg/injection, schedule: Q01DX009 (ip), vehicle: Klucel (hydroxypropylcellulose) (HPC) 108 % of control | [4] 95 % of control | dose: 140.0 mg/kg/injection, schedule: Q01DX009 (ip), vehicle: Klucel (hydroxypropylcellulose) (HPC) 115 % of control | dose: 200.0 mg/kg/injection, schedule: Q01DX009 (ip), vehicle: saline with Tween-80 104 % of control
